From the supplement of paper PMC10949913

How the values were obtained:
Settings in all cases: 48 h
[1] = test system: CU-ACC1; test: AC50 viability; higher = less potent
Procedure, shortened: (§1)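 Library compounds were tested at 11 concentrations against three adrenocortical carcinoma cell lines in 1,536-well plates. CellTiter-Glo luminescence was read after 48 h and normalised per plate to vehicle and empty-well controls. Only inhibitory or non-responding curve classes from fitted concentration-response curves contributed AC50 and area under the curve.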

[2] = test system: NCI-H295R; test: AC50 viability; higher = less potent
Procedure, shortened: as §1

[3] = test system: CU-ACC2; test: AC50 viability; higher = less potent
Procedure, shortened: as §1

[4] = test system: CU-ACC1; test: area under concentration-response curve (viability) (AUC (a.u.)); higher = less active
Procedure, shortened: as §1

[5] = test system: NCI-H295R; test: as above
Procedure, shortened: as §1

[6] = test system: CU-ACC2; test: as above
Procedure, shortened: as §1

SMILES	AC50 viability [1]	AC50 viability [2]	AC50 viability [3]	area under concentration-response curve [4]	area under concentration-response curve [5]	area under concentration-response curve [6]
COC1=C(OC)C=C\2C(=C1)C(=O)N(CCCNCCO)\C3=C2C(=O)C4=C3C=C5OCOC5=C4	5.9 µM	7.42 µM	4.17 µM	364	407	396
C#Cc1cccc(Nc2ncnc3cc(OC)c(OCCCCCCC(=O)NO)cc23)c1	4.68 µM	4.68 µM	2.95 µM	407	448	450
C[C@H](NC(=O)/C(C#N)=C/c1cccc(Br)n1)c1ccccc1	20.9 µM	23.5 µM	23.5 µM	444	442	526
CC(=O)c1ccc2c(c1)c1cc(C(C)=O)ccc1n2CCNC(C)C	2.09 µM	2.35 µM	2.95 µM	405	421	415
N[C@@H](Cc1ccc(N(CCCl)CCCl)cc1)C(=O)O	10.5 µM	9.34 µM	9.34 µM	267	385	303
CN[S+](=O)([O-])c1ccc2c(c1)/C(=C/c1[nH]c3c(c1CCCN1CCN(C)CC1)CCCC3)C(=O)N2	23.5 µM	16.6 µM	16.6 µM	440	458	504
c1ccc(Cn2c(-c3ccc(OCC(C4CCNCC4)n4c(-c5ccccc5)nc5ccccc54)cc3)nc3ccccc32)cc1 (stereo not given)	11.8 µM	9.34 µM	11.8 µM	387	363	391
Cc1cnc(Nc2ccc(OCCN3CCCC3)cc2)nc1Nc1cccc([S+](=O)([O-])NC(C)(C)C)c1	16.6 µM	8.33 µM	8.33 µM	491	501	547
C[C@@H]1O[C@@H](O[C@H]2C[C@@H](O)[C@]3(CO)[C@H]4[C@H](O)C[C@]5(C)[C@H](CC[C@]5(O)[C@@H]4CC[C@]3(O)C2)C/6=C/C(=O)OC6)[C@H](O)[C@H](O)[C@H]1O	0.0263 µM	0.0934 µM	0.0468 µM	215	264	335
C[C@@H]1COCCN1c1cc(-c2ccnn2C)c2ccnc(-c3ccn[nH]3)c2n1	0.742 µM	1.32 µM	6.61 µM	388	415	399
c1cncc(CN2CCC(n3ncc4c(N5CCOCC5)nc(-c5ccc6[nH]ccc6c5)nc43)CC2)c1	20.9 µM	16.6 µM	14.8 µM	442	446	472
Oc1c(Cl)cc(Cl)c2cccnc12	20.9 µM	16.6 µM	14.8 µM	417	404	426
CCC(C)SSc1ncc[nH]1 (stereo not given)	33.2 µM	23.5 µM	20.9 µM	503	491	507
COc1cc(N2CCC(N)CC2)ccc1Nc1ncc(Cl)c(-c2c[nH]c3ccccc23)n1	9.34 µM	1.18 µM	5.9 µM	386	318	357
CNC(=O)c1cc(Oc2ccc(NC(=O)Nc3ccc(Cl)c(C(F)(F)F)c3)cc2)ccn1	18.6 µM	18.6 µM	23.5 µM	518	539	521
CC(C)CNc1ccnc(NCc2csc(-c3ccccc3)n2)n1	3.72 µM	16.6 µM	23.5 µM	445	531	591
CC(C)C[C@H](NC(=O)[C@@H](NC(=O)c1cccc(-c2ccccc2)n1)[C@@H](C)O)B(O)O	0.0723 µM	0.144 µM	0.0723 µM	300	337	297
CO[C@H]1CCC(O[C@H]2C[C@H]([C@]3(C)CC[C@]4(C[C@H](O)[C@@H](C)[C@@H]([C@@H](C)/C=C(\C)C(=O)[C@H](C)C[C@H](C)C(=O)[O-])O4)O3)O[C@]3(O[C@@H]([C@H]4O[C@@](O)(CO)[C@H](C)C[C@@H]4C)C[C@@H]3C)[C@@H]2C)O[C@@H]1C (stereo not given in full)	1.48 µM	2.63 µM	2.35 µM	400	440	392
C=CC(=O)N1CC[C@@H](Oc2nc(Nc3ccc(N4CCC(N5CCN(C)CC5)CC4)cc3)c(C(N)=O)nc2CC)C1	8.11 µM	8.11 µM	8.11 µM	521	529	559
Cc1c[nH]c2nc(Nc3ccc(N4CCN(C)CC4)c(F)c3)nc(-c3cccc(CC#N)c3)c12	6.61 µM	5.25 µM	4.17 µM	457	472	422
CS[C@H]1SC[C@@H]2C(=O)N(C)[C@H](C(C)C)C(=O)OC[C@H](NC(=O)c3cnc4ccccc4n3)C(=O)N[C@H](C)C(=O)N(C)[C@H]1C(=O)N(C)[C@H](C(C)C)C(=O)OC[C@H](NC(=O)c1cnc3ccccc3n1)C(=O)N[C@H](C)C(=O)N2C	0.00934 µM	0.0833 µM	0.0209 µM	152	320	235
CC(C)(O)/C=C\C(=O)[C@](C)(O)[C@H]1[C@H](O)C[C@]2(C)[C@@H]3CC=C4[C@@H](C=C(O)C(=O)C4(C)C)[C@]3(C)C(=O)C[C@@]12C	0.372 µM	5.25 µM	0.332 µM	316	406	377
CC1=NN=C(C[C@@H]2\C=C(C3=CC=C(Cl)C=C3)/C4=CC=CC=C4[N]5C(=NN=C25)C)O1	5.9 µM	5.25 µM	3.32 µM	433	368	447
Cc1nc(Nc2ncc(C(=O)Nc3c(C)cccc3Cl)s2)cc(N2CCN(CCO)CC2)n1	29.5 µM	23.5 µM	23.5 µM	448	446	461
Fc1ccc(C(OCCN2CCN(CCCc3ccccc3)CC2)c2ccc(F)cc2)cc1	16.6 µM	14.8 µM	18.6 µM	471	423	490

SMILES	AC50 viability [1]	AC50 viability [2]	AC50 viability [3]	area under concentration-response curve [4]	area under concentration-response curve [5]	area under concentration-response curve [6]
CCCc1cc(C(=O)N[C@H](Cc2ccc(-c3cccc(OC(F)(F)F)c3)nc2)C(=O)N[C@@H]2CCNC2)sc1C	13.2 µM	18.6 µM	18.6 µM	452	469	447
Cc1cc2c(C(N)=O)cccc2n1-c1nc2c(c(NCc3ccccc3)n1)COCC2	3.32 µM	2.63 µM	2.09 µM	306	436	467
COc1ccc(C(=O)c2c(C)n(CCN3CCOCC3)c3ccccc23)cc1	10.5 µM	5.25 µM	5.25 µM	389	402	431
C=CC(=O)Nc1cccc(Oc2nc(Nc3ccc(N4CCN(C)CC4)cc3)nc3ccsc23)c1	5.9 µM	5.9 µM	8.33 µM	277	337	330
CCc1cc(-c2n[nH]c(C)c2-c2ccc3c(c2)OCCO3)c(O)cc1O	23.5 µM	20.9 µM	23.5 µM	529	565	611
Cc1ccc(NC(=O)NCc2ccc3c(c2)CN(C2CCC(=O)NC2=O)C3=O)cc1Cl (stereo not given)	0.00372 µM	0.0166 µM	0.0332 µM	137	234	289
COc1cc2c(Oc3ccc(NC(=O)C4(C(=O)Nc5ccc(F)cc5)CC4)cc3F)ccnc2cc1OCCCN1CCOCC1	10.5 µM	6.61 µM	9.34 µM	469	436	549
CN1CCN(C(=O)c2ccc3cc(CCNc4ncnc5ccc(C#N)cc45)ccc3c2)CC1	4.17 µM	2.95 µM	16.6 µM	397	436	499
CNC1CCC(N(Cc2cccc(-c3ccncc3)c2)C(=O)c2sc3ccccc3c2Cl)CC1 (stereo not given)	10.5 µM	9.34 µM	7.42 µM	406	425	448
CC[C@@]1(O)C(=O)OC\C2=C1\C=C\3N(CC4=C3N=C5C=CC=CC5=C4)C2=O	1.66 µM	1.48 µM	0.742 µM	363	443	424
Cc1cc(Nc2ncc3c(n2)N(C)C(=O)N(c2cc(NC(=O)c4cccc(C(F)(F)F)c4)ccc2C)C3)n(C)n1	11.8 µM	7.42 µM	2.63 µM	468	512	483
Cc1cc(O[C@@H](CCC(F)(F)F)c2ccc(C(=O)NCCC(=O)O)cc2)cc(C)c1-c1ccc(C(C)(C)C)cc1	18.6 µM	11.8 µM	23.5 µM	382	384	409
COCCOc1nc(-c2ccc(Cl)c(Cl)c2)n(-c2ccc(NC(=O)CCl)cc2)n1	5.25 µM	3.72 µM	3.72 µM	383	391	415
CCCCC(=O)OCC(=O)[C@]1(O)Cc2c(O)c3c(c(O)c2[C@@H](O[C@H]2C[C@H](NC(=O)C(F)(F)F)[C@H](O)[C@H](C)O2)C1)C(=O)c1c(OC)cccc1C3=O	7.42 µM	16.6 µM	9.34 µM	373	537	544
O=C(Nc1cc(C(F)(F)F)cc(C(F)(F)F)c1)c1cc(Cl)ccc1O	2.63 µM	2.95 µM	1.86 µM	429	463	493
Nc1cc(C(F)(F)F)c(-c2nc(N3CCOCC3)nc(N3CCOCC3)n2)cn1	5.25 µM	3.72 µM	16.6 µM	381	441	413
COC(=O)c1ccc2c(c1)NC(=O)/C2=C(\Nc1ccc(N(C)C(=O)CN2CCN(C)CC2)cc1)c1ccccc1	20.9 µM	8.33 µM	7.42 µM	504	483	528
Cc1ccc(-c2cc(C(F)(F)F)nn2-c2ccc([S+](N)(=O)[O-])cc2)cc1	10.5 µM	9.34 µM	10.5 µM	268	271	261
COc1cc2c(cc1O)CCN[C@]21CS[C@@H]2c3c(OC(C)=O)c(C)c4c(c3[C@H](COC1=O)N1[C@@H]2[C@H]2c3c(cc(C)c(OC)c3O)C[C@@H]([C@@H]1O)N2C)OCO4	0.00855 µM	0.0152 µM	0.0152 µM	285	315	344
COc1cc(N2CCC(N(C)C)CC2)ccc1Nc1ncc(Cl)c(Nc2ccccc2P(C)(C)=O)n1	7.42 µM	3.72 µM	5.25 µM	424	426	419
CC(C)c1c2cc(-c3ccnc(N[C@H]4CC[C@H](NC5CCOCC5)CC4)n3)ccc2nn1C	0.372 µM	0.417 µM	0.263 µM	333	380	376
NC1(C(=O)N[C@@H](CCO)c2ccc(Cl)cc2)CCN(c2ncnc3[nH]ccc23)CC1	3.72 µM	5.9 µM	18.6 µM	432	463	515
C=CC(=O)Nc1cc(Nc2nccc(-c3cn(C)c4ccccc34)n2)c(OC)cc1N(C)CCN(C)C	9.34 µM	9.34 µM	10.5 µM	393	408	432
CC[C@@H](C)Nc1cc(C(=O)NC2CC3CC[C@@H](C2)N3c2ccc(C(=O)C3CC3)cn2)c(C)cc1C(N)=O (stereo not given in full)	0.59 µM	0.59 µM	0.118 µM	330	408	405
CCOC(=O)CCNc1cc(N2CCc3ccccc3CC2)nc(-c2ccccn2)n1	3.32 µM	3.72 µM	16.6 µM	384	444	534
